Data as given in publication PMC8474115 (Journal of Medicinal Chemistry, 2021).
Counter-ions that a name gives are not always drawn. Like-named read-outs stand apart in the source and are kept apart here.

Experiments:
[1] = target: T1, Cannabinoid CB2 (Homo sapiens, UniProt P34972); assay: Eurofins SafetyScreen panel; assay type: binding
T1 construct: purchased Eurofins (Panlabs) SafetyScreen87 Panel

[2] = target: T2, GABA Transporter (Rattus norvegicus, UniProt P23978); assay: Eurofins SafetyScreen panel; assay type: binding
T2 construct: Eurofins (contract assay)

[3] = target: T3, Angiotensin AT1 (Homo sapiens, UniProt P30556); assay: Eurofins SafetyScreen panel; assay type: binding
T3 construct: Eurofins (contract screening, SafetyScreen panel) PP223

[4] = target: T4, Vasopressin V1A (Homo sapiens, UniProt P37288); assay: Eurofins SafetyScreen panel; assay type: binding
T4 construct: Eurofins (contract screening, SafetyScreen panel) PP223

[5] = target: Ca Channel L-Type, Phenylalkylamine (Rattus norvegicus, UniProt P22002); assay: Eurofins SafetyScreen panel; assay type: binding
[6] = target: CYP2C9 (Homo sapiens, UniProt P11712); assay: Cytochrome P450 inhibition (Eurofins); settings: at 10 μM; listed as 17, 10 µM
[7] = target: T5, Adrenergic α2B (Homo sapiens, UniProt P18089); assay: Eurofins SafetyScreen panel; assay type: binding
T5 construct: Eurofins (contract screening, SafetyScreen panel) PP223
T5 sequence (P18089 1-450): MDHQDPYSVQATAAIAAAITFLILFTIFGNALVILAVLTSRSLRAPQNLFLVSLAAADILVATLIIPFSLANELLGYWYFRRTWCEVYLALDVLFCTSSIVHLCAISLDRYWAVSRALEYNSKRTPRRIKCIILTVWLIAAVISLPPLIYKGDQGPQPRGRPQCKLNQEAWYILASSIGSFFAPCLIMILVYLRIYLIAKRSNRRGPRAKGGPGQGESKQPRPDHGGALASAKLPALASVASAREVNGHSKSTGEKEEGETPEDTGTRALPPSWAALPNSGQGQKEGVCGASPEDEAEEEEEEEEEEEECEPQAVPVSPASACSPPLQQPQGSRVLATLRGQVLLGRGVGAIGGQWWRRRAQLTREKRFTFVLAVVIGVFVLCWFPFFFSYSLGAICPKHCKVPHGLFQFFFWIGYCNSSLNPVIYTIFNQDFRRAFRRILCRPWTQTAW

[8] = target: T6, Serotonin 5-HT2B (Homo sapiens, UniProt P41595); assay: Eurofins SafetyScreen panel; assay type: binding
T6 construct: Eurofins (contract assay)

[9] = target: T7, Dopamine D3 (Homo sapiens, UniProt P35462); assay: Eurofins SafetyScreen panel; assay type: binding
T7 construct: Eurofins (contract screening) 219800

[10] = target: hERG potassium channel (Homo sapiens, UniProt Q12809); assay: in vitro; settings: %inh
[11] = target: T8, Dopamine D2L (Homo sapiens, UniProt P14416); assay: Eurofins SafetyScreen panel; assay type: binding
T8 construct: purchased Eurofins (Panlabs) SafetyScreen87 Panel

[12] = target: T9, ACE (Oryctolagus cuniculus, UniProt P12822); assay: Eurofins SafetyScreen panel; assay type: biochemical, rabbit
T9 construct: Eurofins

[13] = target: T10, Muscarinic M3 (Homo sapiens, UniProt P20309); assay: Eurofins SafetyScreen panel; assay type: binding
T10 construct: Eurofins (contract screening, SafetyScreen panel) PP223

[14] = target: T11, Adenosine A2A (Homo sapiens, UniProt P29274); assay: Eurofins SafetyScreen panel; assay type: binding
T11 construct: Eurofins (contract screening, SafetyScreen panel) PP223

[15] = target: T12, Serotonin 5-HT1B (Homo sapiens, UniProt P28222); assay: Eurofins SafetyScreen panel; assay type: binding
T12 construct: Eurofins (contract assay)

[16] = target: T13, Serotonin 5-HT2C (Homo sapiens, UniProt P28335); assay: Eurofins SafetyScreen panel; assay type: binding
T13 construct: Eurofins (contract assay)
T13 sequence (P28335 33-458): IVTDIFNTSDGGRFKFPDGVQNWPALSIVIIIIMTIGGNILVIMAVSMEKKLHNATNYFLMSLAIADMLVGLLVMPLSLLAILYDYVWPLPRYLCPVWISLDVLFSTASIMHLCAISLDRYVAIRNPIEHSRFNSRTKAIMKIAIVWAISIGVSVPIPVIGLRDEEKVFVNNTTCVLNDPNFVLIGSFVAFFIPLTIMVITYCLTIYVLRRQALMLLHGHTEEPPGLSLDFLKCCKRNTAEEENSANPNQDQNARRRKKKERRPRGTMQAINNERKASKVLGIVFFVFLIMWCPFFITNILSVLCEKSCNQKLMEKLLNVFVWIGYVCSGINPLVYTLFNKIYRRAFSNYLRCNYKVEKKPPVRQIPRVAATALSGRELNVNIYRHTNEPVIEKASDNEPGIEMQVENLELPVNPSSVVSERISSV

[17] = target: T14, COX-2 (Homo sapiens, UniProt P35354); assay: Eurofins SafetyScreen panel; assay type: biochemical
T14 construct: Eurofins

[18] = target: T15, Dopamine Transporter (DAT) (Homo sapiens, UniProt Q01959); assay: Eurofins SafetyScreen panel; assay type: binding
T15 construct: Eurofins (contract assay)

[19] = target: T16, Progesterone PR-B (Homo sapiens, UniProt P06401); assay: Eurofins SafetyScreen panel; assay type: binding
T16 construct: Eurofins (contract assay)

[20] = target: Ca Channel L-Type, Benzothiazepine (Rattus norvegicus, UniProt P22002); assay: Eurofins SafetyScreen panel; assay type: binding
[21] = read-out: %inh, 10 μM, additional batch

T7 sequence (P35462 whole entry): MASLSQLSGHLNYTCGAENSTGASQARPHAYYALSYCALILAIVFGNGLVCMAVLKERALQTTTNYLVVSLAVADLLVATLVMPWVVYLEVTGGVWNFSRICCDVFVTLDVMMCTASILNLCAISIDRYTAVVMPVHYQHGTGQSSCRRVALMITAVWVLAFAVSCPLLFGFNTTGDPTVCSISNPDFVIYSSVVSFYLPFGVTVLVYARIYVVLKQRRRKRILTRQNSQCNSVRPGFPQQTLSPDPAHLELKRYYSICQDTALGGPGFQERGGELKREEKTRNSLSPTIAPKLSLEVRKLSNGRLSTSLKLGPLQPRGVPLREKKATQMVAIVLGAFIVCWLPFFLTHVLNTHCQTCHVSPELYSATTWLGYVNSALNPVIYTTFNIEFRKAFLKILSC
Chain of hERG potassium channel (Q12809 whole entry): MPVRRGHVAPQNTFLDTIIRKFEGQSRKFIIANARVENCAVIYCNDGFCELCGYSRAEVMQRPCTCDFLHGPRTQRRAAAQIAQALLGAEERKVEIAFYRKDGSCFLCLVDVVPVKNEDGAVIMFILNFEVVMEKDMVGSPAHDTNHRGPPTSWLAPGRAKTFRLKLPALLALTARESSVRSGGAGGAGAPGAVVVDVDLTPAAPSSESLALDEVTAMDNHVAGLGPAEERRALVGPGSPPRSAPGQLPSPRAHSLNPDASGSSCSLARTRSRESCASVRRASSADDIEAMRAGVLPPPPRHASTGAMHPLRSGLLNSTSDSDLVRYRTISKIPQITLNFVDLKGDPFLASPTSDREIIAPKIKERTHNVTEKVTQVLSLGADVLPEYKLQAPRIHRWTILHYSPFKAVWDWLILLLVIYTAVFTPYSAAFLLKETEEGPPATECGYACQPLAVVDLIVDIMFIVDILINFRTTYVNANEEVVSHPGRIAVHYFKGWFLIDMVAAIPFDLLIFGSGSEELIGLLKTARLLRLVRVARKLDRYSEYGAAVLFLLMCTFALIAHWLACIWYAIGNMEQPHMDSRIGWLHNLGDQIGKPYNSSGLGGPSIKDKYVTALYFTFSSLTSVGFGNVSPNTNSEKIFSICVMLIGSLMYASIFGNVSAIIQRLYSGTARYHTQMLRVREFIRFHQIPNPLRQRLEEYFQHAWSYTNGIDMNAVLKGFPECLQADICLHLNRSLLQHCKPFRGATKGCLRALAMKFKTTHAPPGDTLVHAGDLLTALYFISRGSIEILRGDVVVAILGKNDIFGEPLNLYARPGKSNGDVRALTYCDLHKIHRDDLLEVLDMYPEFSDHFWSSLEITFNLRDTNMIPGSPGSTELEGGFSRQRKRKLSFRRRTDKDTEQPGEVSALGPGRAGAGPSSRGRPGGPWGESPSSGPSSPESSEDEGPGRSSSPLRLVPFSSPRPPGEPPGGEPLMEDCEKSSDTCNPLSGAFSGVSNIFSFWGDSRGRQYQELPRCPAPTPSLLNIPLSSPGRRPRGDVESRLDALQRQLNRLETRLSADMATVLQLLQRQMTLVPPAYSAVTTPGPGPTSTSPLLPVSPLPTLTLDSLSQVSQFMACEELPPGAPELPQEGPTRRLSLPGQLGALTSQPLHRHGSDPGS
T12 sequence (P28222 whole entry): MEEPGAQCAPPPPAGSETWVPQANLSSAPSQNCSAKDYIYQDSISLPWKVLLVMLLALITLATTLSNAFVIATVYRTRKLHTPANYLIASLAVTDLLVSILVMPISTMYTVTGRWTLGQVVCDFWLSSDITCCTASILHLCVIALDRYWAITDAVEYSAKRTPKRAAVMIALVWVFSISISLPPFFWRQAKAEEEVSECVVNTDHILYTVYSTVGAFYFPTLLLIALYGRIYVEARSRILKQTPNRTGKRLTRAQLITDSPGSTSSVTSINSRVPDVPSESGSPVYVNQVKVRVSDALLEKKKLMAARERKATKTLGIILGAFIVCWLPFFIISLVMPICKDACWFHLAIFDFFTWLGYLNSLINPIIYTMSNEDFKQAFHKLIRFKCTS
T6 sequence (P41595 whole entry): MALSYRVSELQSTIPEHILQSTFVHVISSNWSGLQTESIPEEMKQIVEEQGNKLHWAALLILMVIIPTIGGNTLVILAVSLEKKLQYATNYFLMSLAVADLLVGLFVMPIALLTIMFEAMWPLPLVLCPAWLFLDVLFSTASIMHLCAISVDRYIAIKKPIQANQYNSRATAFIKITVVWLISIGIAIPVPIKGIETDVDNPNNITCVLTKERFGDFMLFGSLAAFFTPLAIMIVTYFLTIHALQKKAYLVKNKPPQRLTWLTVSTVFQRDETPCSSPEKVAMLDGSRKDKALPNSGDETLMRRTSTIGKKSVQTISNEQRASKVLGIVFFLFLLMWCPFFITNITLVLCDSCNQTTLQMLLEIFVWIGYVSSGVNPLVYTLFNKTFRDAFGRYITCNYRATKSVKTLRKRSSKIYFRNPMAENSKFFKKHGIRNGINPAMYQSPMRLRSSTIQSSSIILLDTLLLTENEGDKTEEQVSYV
Chain of Ca Channel L-Type, Phenylalkylamine (P22002 whole entry): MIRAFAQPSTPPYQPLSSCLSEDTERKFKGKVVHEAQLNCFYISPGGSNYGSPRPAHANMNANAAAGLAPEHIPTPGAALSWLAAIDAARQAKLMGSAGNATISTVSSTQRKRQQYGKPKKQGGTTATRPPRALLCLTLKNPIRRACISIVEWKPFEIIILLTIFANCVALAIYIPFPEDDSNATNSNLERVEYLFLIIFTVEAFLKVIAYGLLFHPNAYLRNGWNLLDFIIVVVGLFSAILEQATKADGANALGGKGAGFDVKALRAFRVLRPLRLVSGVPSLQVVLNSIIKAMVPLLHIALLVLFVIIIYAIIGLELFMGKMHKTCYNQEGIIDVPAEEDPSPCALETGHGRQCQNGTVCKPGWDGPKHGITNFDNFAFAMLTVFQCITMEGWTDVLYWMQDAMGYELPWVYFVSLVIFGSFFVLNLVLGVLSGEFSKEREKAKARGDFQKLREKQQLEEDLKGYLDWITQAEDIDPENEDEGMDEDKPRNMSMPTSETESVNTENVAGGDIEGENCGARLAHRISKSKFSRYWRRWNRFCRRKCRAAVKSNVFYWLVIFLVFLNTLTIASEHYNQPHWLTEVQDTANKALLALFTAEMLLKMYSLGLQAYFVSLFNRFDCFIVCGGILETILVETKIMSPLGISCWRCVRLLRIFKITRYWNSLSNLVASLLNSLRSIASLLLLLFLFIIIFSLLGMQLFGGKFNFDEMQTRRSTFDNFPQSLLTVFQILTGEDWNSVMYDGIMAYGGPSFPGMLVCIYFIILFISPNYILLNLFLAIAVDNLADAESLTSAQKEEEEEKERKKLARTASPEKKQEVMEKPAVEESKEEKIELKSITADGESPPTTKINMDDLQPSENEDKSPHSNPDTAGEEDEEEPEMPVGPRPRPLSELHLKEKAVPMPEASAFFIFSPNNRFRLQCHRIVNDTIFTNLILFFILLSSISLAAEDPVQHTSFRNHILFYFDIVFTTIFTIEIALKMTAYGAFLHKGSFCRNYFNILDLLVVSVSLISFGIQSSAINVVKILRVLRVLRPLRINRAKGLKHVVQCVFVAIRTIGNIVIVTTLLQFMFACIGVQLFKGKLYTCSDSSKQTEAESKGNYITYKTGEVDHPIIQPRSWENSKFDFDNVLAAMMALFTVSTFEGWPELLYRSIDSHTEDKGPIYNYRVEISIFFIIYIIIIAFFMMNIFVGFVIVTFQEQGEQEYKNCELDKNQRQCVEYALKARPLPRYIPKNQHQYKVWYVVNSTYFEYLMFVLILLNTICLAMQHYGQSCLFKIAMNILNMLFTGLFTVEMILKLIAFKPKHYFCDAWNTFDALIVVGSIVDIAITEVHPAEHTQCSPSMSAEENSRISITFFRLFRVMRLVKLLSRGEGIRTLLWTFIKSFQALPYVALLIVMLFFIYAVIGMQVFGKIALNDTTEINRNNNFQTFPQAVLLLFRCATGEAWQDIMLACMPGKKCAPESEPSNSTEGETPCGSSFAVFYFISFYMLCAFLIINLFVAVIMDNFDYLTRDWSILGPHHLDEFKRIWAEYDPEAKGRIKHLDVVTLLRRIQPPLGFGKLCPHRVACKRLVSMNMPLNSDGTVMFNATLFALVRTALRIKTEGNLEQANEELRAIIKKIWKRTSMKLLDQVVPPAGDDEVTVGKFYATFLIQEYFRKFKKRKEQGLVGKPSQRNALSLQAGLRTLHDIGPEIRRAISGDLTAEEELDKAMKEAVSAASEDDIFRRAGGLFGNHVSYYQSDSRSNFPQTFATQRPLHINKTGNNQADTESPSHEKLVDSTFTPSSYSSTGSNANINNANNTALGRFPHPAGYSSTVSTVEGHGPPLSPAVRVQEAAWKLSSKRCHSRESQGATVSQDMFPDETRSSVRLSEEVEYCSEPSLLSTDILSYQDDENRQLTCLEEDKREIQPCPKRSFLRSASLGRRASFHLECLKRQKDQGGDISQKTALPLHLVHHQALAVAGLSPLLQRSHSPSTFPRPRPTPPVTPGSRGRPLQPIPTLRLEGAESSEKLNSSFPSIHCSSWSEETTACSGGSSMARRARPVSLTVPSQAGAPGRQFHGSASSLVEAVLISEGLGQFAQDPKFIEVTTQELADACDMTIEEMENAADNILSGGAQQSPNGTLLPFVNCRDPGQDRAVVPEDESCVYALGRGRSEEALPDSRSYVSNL
Chain of Ca Channel L-Type, Benzothiazepine (P22002 whole entry): as above
T8 sequence (P14416 whole entry): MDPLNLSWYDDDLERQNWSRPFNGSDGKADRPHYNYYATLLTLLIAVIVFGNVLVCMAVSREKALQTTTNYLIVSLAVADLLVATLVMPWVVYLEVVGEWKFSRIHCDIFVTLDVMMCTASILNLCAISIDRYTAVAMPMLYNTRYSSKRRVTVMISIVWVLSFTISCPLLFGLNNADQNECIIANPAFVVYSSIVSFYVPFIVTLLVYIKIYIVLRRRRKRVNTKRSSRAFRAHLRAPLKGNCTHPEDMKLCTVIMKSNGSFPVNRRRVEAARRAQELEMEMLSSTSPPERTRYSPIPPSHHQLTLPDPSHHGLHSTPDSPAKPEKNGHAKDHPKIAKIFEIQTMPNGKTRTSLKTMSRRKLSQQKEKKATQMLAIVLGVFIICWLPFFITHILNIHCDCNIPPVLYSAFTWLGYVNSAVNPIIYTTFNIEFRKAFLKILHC

O=S(=O)(c1cccc(F)c1)n1ccc2c(N3CCNCC3)nc3ccccc3c21 [FPPQ, 1-[(3-Fluorophenyl)sulfonyl]-4-(piperazin-1-yl)-1H-pyrrolo[3,2-c]quinoline dihydrochloride]
inhibition at 10 µM [1]: -21% | inhibition at 10 µM [2]: 3% | inhibition at 10 µM [3]: -4% | inhibition at 10 µM [4]: -18% | inhibition at 0.01 µM ([5]; 10 nM): -2% | inhibition at 0.1 µM ([5]; 0.1 μM): 9% | inhibition at 1 µM ([5]; 1 μM): 48% | inhibition at 10 µM [5]: 78% | inhibition at 10 µM ([5]; additional batch): 85% | cytochrome P450 inhibition 2C9 [6]: < 25% inh at 10 uM | IC50 [7]: 10100 nM | Ki [7]: 4610 nM | inhibition at 0.1 µM ([7]; read-out: %inh, 0.1 μM): 1% | inhibition at 1 µM ([7]; read-out: %inh, 1 μM): -4% | inhibition at 10 µM ([7]; read-out: %inh, 10 μM): 43% | inhibition at 10 µM [7, 21]: 53% | inhibition at 100 µM ([7]; read-out: %inh, 100 μM): 108% | IC50 [8]: 260 nM | Ki [8]: 170 nM | inhibition at 0.01 µM ([8]; read-out: %inh, 10 nM): 13% | inhibition at 0.1 µM ([8]; read-out: %inh, 0.1 μM): 31% | inhibition at 1 µM ([8]; read-out: %inh, 1 μM): 71% | inhibition at 10 µM ([8]; read-out: %inh, 10 μM): 96% | inhibition at 10 µM [8, 21]: 97% | IC50 [9]: 630 nM | Ki [9]: 210 nM | inhibition at 0.01 µM ([9]; read-out: %inh, 10 nM): -2% | inhibition at 0.1 µM ([9]; read-out: %inh, 0.1 μM): 14% | inhibition at 1 µM ([9]; read-out: %inh, 1 μM): 63% | inhibition at 10 µM ([9]; read-out: %inh, 10 μM): 89% | inhibition at 10 µM [9, 21]: 90% | inhibition at 0.01 µM ([10]; 10 nM): 9% | inhibition at 0.1 µM ([10]; 0.1 μM): 9% | inhibition at 1 µM ([10]; 1 μM): 32% | inhibition at 10 µM [10]: 107% | inhibition at 10 µM ([10]; additional batch): 101% | inhibition at 10 µM [11]: 46% | inhibition at 10 µM [12]: -9% | inhibition at 10 µM [13]: 43% | inhibition at 10 µM [14]: 1% | IC50 [15]: 1170 nM | Ki [15]: 890 nM | inhibition at 0.01 µM ([15]; read-out: %inh, 10 nM): 5% | inhibition at 0.1 µM ([15]; read-out: %inh, 0.1 μM): 4% | inhibition at 1 µM ([15]; read-out: %inh, 1 μM): 47% | inhibition at 10 µM ([15]; read-out: %inh, 10 μM): 90% | inhibition at 10 µM [15, 21]: 92% | IC50 [16]: 1580 nM | Ki [16]: 830 nM | inhibition at 0.01 µM ([16]; read-out: %inh, 10 nM, additional batch): -5% | inhibition at 0.1 µM ([16]; read-out: %inh, 0.1 μM): -6% | inhibition at 1 µM ([16]; read-out: %inh, 1 μM): 32% | inhibition at 10 µM ([16]; read-out: %inh, 10 μM): 94% | inhibition at 10 µM [16, 21]: 93% | inhibition at 10 µM [17]: -13% | IC50 [18]: 1370 nM | inhibition at 0.01 µM ([18]; read-out: %inh, 10 nM): 2% | inhibition at 0.1 µM ([18]; read-out: %inh, 0.1 μM): 6% | inhibition at 1 µM ([18]; read-out: %inh, 1 μM): 31% | inhibition at 10 µM ([18]; read-out: %inh, 10 μM): 101% | inhibition at 10 µM [18, 21]: 98% | inhibition at 10 µM [19]: 21% | inhibition at 0.01 µM ([20]; 10 nM): -3% | inhibition at 1 µM ([20]; 1 μM): 46% | inhibition at 10 µM [20]: 83% | inhibition at 10 µM ([20]; additional batch): 92%
